Measured values from patent US8486984B2, “Aminomethyl substituted bicyclic aromatic compounds suitable for treating disorders that respond to modulation of the dopamine D3 receptor” (Abbott GmbH & Co., KG, priority 2004, dated 2013).
Where a name gives a salt, the structure may show the parent alone.

Columns and labels:
[1] = target: T1, human dopamine D3 receptors (Homo sapiens, UniProt P35462); assay: Dopamine D3 receptor binding, [125I]-iodosulpride displacement; details: for Ki: membranes from HEK-293 cells stably expressing receptor, 0.1 nM [125I]-iodosulpride, 25° C., 60 minutes; for Ki(D2)*/Ki(D3)*: selectivity, ratio of receptor binding constants D2/D3
T1 construct: expressed in transfected cells; membranes)
T1 sequence (P35462 whole entry): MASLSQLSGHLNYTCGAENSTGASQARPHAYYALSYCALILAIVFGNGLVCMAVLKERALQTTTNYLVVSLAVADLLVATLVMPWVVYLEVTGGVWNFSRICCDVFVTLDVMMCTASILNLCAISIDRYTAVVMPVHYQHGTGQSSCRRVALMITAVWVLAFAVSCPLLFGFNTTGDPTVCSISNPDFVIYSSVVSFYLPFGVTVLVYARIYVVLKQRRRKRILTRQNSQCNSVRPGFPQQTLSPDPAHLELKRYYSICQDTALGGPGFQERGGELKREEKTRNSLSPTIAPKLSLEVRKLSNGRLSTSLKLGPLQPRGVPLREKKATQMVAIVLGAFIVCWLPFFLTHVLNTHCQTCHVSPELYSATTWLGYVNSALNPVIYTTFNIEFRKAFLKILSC
Protocol: (§1) The substance to be tested was either dissolved in methanol/Chremophor® (BASF-AG) or in dimethyl sulfoxide and then diluted with water to the desired concentration.
(§2) Each assay mixture was run in triplicate.
The incubation buffer contained 50 mM tris, 120 mM NaCl, 5 mM KCl, 2 mM CaCl2, 2 mM MgCl2 and 0.1% bovine serum albumin, 10 μM quinolone and 0.1% ascorbic acid (prepared fresh daily). The buffer was adjusted to pH 7.4 with HCl.
(§3) After having been incubated at 25° C. for 60 minutes, the assay mixtures were filtered through a Whatman GF/B glass fiber filter under vacuum using a cell collecting device. The filters were transferred to scintillation viols using a filter transfer system. After 4 ml of Ultima Gold® (Packard) have been added, the samples were shaken for one hour and the radioactivity was then counted in a Beta-Counter (Packard, Tricarb 2000 or 2200CA). The cpm values were converted into dpm using a standard quench series and the program belonging to the instrument.
(§4) The inhibition curves were analyzed by means of iterative nonlinear regression analysis using the Statistical Analysis System (SAS) which is similar to the “LIGAND” program described by Munson and Rodbard.

[2] = target: T2, human dopamine D2L receptors (long isoform) (Homo sapiens, UniProt P14416); assay: Dopamine D2L receptor binding, [125I] iodospiperone displacement; details: membranes from HEK-293 cells stably expressing receptor; 0.01 nM [125I] iodospiperone; 25° C., 60 minutes; read-out: Ki(D2)*
T2 construct: expressed in transfected cells; membranes)
T2 sequence (P14416 whole entry, canonical isoform): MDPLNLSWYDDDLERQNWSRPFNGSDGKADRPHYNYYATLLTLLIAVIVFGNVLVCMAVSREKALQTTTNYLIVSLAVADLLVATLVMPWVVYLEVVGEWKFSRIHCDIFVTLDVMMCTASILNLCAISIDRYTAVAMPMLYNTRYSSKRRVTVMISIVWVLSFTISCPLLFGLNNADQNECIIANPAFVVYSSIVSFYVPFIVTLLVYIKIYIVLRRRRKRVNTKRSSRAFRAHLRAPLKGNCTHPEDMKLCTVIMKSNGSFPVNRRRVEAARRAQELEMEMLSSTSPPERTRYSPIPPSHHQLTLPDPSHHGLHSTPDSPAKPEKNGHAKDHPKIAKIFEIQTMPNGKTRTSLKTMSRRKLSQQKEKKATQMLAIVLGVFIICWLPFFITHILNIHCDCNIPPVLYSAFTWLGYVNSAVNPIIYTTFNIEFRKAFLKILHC
Protocol: as §1, §2
The incubation buffer contained 50 mM tris, 120 mM NaCl, 5 mM KCl, 2 mM CaCl2, 2 mM MgCl2 and 0.1% bovine serum albumin. The buffer was adjusted to pH 7.4 with HCl.
as §3, §4

Row | Ki [1] | Ki(D2)*/Ki(D3)* [1] | Ki [2] | Structure (SMILES)
1 | 1.72 nM | 69 | 119 nM | CCCNCC1CCCc2cc(NS(=O)(=O)c3ccc(C(C)C)cc3)ccc21 (stereo not shown) [Example 5, 4-Isopropyl-N-(5-propylaminomethyl-5,6,7,8-tetrahydro-naphthalen-2-yl)-benzenesulfonamide×HCl]
2 | 9.4 nM | 55 | 517 nM | CCCNCC1Cc2cc(NS(=O)(=O)c3ccc(C(C)C)cc3)ccc2N1 (stereo not shown) [Example 2, 4-Isopropyl-N-(2-propylaminomethyl-2,3-dihydro-1H-indol-5-yl)-benzenesulfonamide×HCl]
3 | 7.4 nM | 54 | 398 nM | CCCNCC1Cc2ccc(NS(=O)(=O)c3ccc(C(C)C)cc3)cc2C1 (stereo not shown) [Example 7, 4-Isopropyl-N-(2-propylaminomethyl-indan-5-yl)-benzenesulfonamide]
4 | 1.8 nM | 36 | – | CCCN1CC2CCc3cc(NS(=O)(=O)c4ccc(C(C)C(F)(F)F)cc4)ccc3C2C1.Cl (stereo not shown) [Example 15, N-(2-Propyl-2,3,3a,4,5,9b-hexahydro-1H-benzo[e]isoindol-7-yl)-4-(2,2,2-trifluoro-1-methylethyl)-benzenesulfonamide, hydrochloride]
5 | 4.3 nM | 54 | 232 nM | C=CCNCC1Cc2cccc(NS(=O)(=O)c3ccc(C(C)C)cc3)c2C1 (stereo not shown) [Example 9, 4-Isopropyl-N-(2-allylaminomethyl-indan-4-yl)-benzenesulfonamide]
6 | 63.4 nM | 120 | 7640 nM | CCCNCC1Cc2cc(NS(=O)(=O)c3ccc(OC(F)(F)F)cc3)ccc2N1 (stereo not shown) [Example 4, N-(2-Propylaminomethyl-2,3-dihydro-1H-indol-5-yl)-4-trifluoromethoxy-benzenesulfonamide×HCl]
7 | 10.1 nM | 5 | – | CCCN1CC2CCc3c(cc(Cl)c(NS(=O)(=O)c4ccc(C(C)C)cc4)c3Cl)C2C1.Cl (stereo not shown) [Example 13, N-(6,8-Dichloro-2-propyl-2,3,3a,4,5,9b-hexahydro-1H-benzo[e]isoindol-7-yl)-4-isopropyl-benzenesulfonamide, hydrochloride]
8 | 3.3 nM | 19 | – | CCCN1CC2CCc3cc(NS(=O)(=O)c4ccc(OC(F)F)cc4)ccc3C2C1.Cl (stereo not shown) [Example 17, 4-Difluoromethoxy-N-(2-propyl-2,3,3a,4,5,9b-hexahydro-1H-benzo[e]isoindol-7-yl)-benzenesulfonamide, hydrochloride]
9 | 1.32 nM | 45 | 58.6 nM | CCCNCC1CCc2cc(NS(=O)(=O)c3ccc(C(C)C)cc3)ccc21 (stereo not shown) [Example 10, 4-Isopropyl-N-(1-propylaminomethyl-indan-5-yl)-benzenesulfonamide]
10 | 55 nM | 23 | 55 nM | CCCNCc1cc2cc(NS(=O)(=O)c3ccc(OC(F)(F)F)cc3)ccc2[nH]1 [Example 3, N-(2-Propylaminomethyl-1H-indol-5-yl)-4-trifluoromethoxy-benzenesulfonamide×½ fumaric acid]
11 | 5.8 nM | 39 | 225 nM | CCCNCc1cc2cc(NS(=O)(=O)c3ccc(C(C)C)cc3)ccc2[nH]1 [Example 1, 4-Isopropyl-N-(2-propylaminomethyl-1H-indol-5-yl)-benzenesulfonamide]
12 | 5.3 nM | 26 | 137 nM | CCCN1CCC2c3ccc(NS(=O)(=O)c4ccc(C(C)C)cc4)cc3NC2C1 (stereo not drawn) [Example 12, 4-Isopropyl-N-(2-propyl-2,3,4,4a,9,9a-hexahydro-1H-beta-carbolin-7-yl)-benzenesulfonamide]
13 | 0.5 nM | 28 | – | CCCN1CC2CCc3cc(NS(=O)(=O)c4ccc(C(C)C)cc4)ccc3C2C1.Cl (stereo not shown) [Example 14, 4-Isopropyl-N-(2-propyl-2,3,3a,4,5,9b-hexahydro-1H-benzo[e]isoindol-7-yl)-benzenesulfonamide, hydrochloride]
14 | 3.6 nM | 66 | – | CCCN1CC2CCc3cc(NS(=O)(=O)c4ccc(OC(F)(F)F)cc4)ccc3C2C1.Cl (stereo not shown) [Example 16, N-(2-Propyl-2,3,3a,4,5,9b-hexahydro-1H-benzo[e]isoindol-7-yl)-4-trifluoromethoxy-benzenesulfonamide hydrochloride]
